According to patent US9624182B2, “Compounds as lysophosphatidic acid receptor antagonists” (Amira Pharmaceuticals, Inc., priority 2009, dated 2017):
pIC50: −log10 of the molar value. Blank lines part the entries; values can stand above or below the compound they belong to.

Experiments:
human LPA1 = target: T1, human LPA1 (Homo sapiens, UniProt Q92633); assay: LPA1 calcium flux assay; assay type: cell-based; details: CHO cells expressing human LPA1, stimulated with 10 nM LPA; read-out: HLPA1 Ca Flux IC50
T1 construct: the full-length cDNA for human LPA1 was obtained by PCR of the reverse transcription reaction; expressed in transfected cells
In short: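 CHO cells stably expressing cloned human LPA1, serum-starved overnight, loaded with Calcium 4 dye 1 h at 37 °C in HBSS/20 mM Hepes with 0.3% fatty-acid-free HSA. Compounds preincubated 30 min at room temperature, then cells stimulated with 10 nM LPA; intracellular Ca2+ read by fluorescence. IC50 from titration curves.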

[1] = test system: A2058 human melanoma cells; assay: LPA1 chemotaxis assay; assay type: cell-based; details: LPA 100 nM, read-out: IC50, inhibition of LPA-driven chemotaxis
Protocol: Chemotaxis of the A2058 human melanoma cells was measured using the Neuroprobe ChemoTx® System plates (8 μm pore size, 5.7 mm diameter sites). The filter sites were coated with 0.001% fibronectin (Sigma) in 20 mM Hepes, pH 7.4 and allowed to dry. A2058 cells were serum-starved for 24 hours, then harvested with Cell Stripper and resuspended in DMEM containing 0.1% fatty-acid-free bovine serum albumin (BSA) to a concentration of 1×10^6/ml. Cells were mixed with an equal volume of test compound (2×) in DMEM containing 0.1% fatty-acid-free BSA and incubated at 37° C. for 15 minutes. LPA (100 nM in DMEM containing 0.1% fatty-acid-free BSA) or vehicle was added to each well of the lower chamber and 50 μl of the cell suspension/test compound mix was applied to the upper portion of the ChemoTx plate. Plates were incubated at 37° C. for three hours and then the cells removed from the upper portion by rinsing with PBS and scraping. The filter was dried then stained with HEMA 3 Staining System (Fisher Scientific). The absorbance of the filter was read at 590 nm and IC50s were determined using Symyx Assay Explorer.

nerve-injured mice = details: pretreatment; cited from earlier work
[2] = test system: human foetal lung fibroblasts; details: BAL obtained from IPF patients; cited from earlier work
UUO mice = UUO mice treated with antagonist; cited from earlier work
[3] = test system: mouse epithelial renal cell line, MCT; details: MCT cells, co-treatment with LPA; cited from earlier work
[4] = test system: pancreatic cancer cell lines; details: LPA and peritoneal fluid (ascites) from pancreatic cancer patients; cited from earlier work
[5] = test system: highly peritoneal metastatic pancreatic cancer cell line; details: cited from earlier work

T1 sequence (Q92633 whole entry): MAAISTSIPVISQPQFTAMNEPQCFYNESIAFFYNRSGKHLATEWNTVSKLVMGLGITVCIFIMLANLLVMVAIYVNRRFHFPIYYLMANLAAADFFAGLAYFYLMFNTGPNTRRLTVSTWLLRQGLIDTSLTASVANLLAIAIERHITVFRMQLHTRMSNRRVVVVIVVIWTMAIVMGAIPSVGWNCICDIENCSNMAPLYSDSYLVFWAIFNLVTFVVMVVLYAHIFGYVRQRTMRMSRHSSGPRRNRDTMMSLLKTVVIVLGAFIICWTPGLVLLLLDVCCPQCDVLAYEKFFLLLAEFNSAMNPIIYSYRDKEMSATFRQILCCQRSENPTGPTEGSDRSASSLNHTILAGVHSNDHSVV

pIC50 (human LPA1): > 6.52
pIC50 [1]: > 7.00
SMILES: Cc1noc(-c2ccc(-c3ccc(C4(C(=O)O)CC4)cc3)cc2)c1C(O)CCCc1ccccc1 (single isomer, unassigned) [Compound 1-155, 1-{4′-[4-(1-Hydroxy-4-phenyl-butyl)-3-methyl-isoxazol-5-yl]-biphenyl-4-yl}-cyclopropanecarboxylic acid]

pIC50 (human LPA1): > 6.52
pIC50 [1]: > 7.00
SMILES: Cc1noc(-c2ccc(-c3ccc(C4(C(=O)O)CC4)cc3)cc2)c1C(O)C(F)(F)CCc1ccccc1 (single isomer, unassigned) [Compound 1-255, 1-{4′-[4-(2,2-Difluoro-1-hydroxy-4-phenyl-butyl)-3-methyl-isoxazol-5-yl]-biphenyl-4-yl}-cyclopropanecarboxylic acid]

SMILES: C[C@@H](N)[C@H]1CC[C@H](C(=O)Nc2ccncc2)CC1 [Compound Y-27632]
allodynia and hyperalgesia (nerve-injured mice): completely abolished

SMILES: Cc1noc(-c2ccc(CSCCC(=O)O)cc2)c1NC(=O)OC(C)c1ccccc1Cl (stereo not shown) [Ki16425]
chemotaxis of human foetal lung fibroblasts induced by BAL from IPF patients [2]: blocked
development of renal fibrosis in UUO mice (UUO mice): closely resembled the LPA1 (−/−) mice
LPA-induced increase in CTGF expression [3]: almost completely suppressed
in vitro migration in response to LPA and ascites [4]: effectively blocked
LPA-induced and ascites-induced invasion activity [5]: blocked
